Experimental data: ChEMBL document CHEMBL4334471, “Discovery of 1,8-disubstituted-[1,2,3]triazolo[4,5-c]quinoline derivatives as a new class of Hippo signaling pathway inhibitors” (Bioorg Med Chem Lett, 2019)

Legend:
[1] = tested on: Tyrosine-protein kinase ABL1 (Homo sapiens), P00519 [Q252H]; experiment: Inhibition of human ABL1 Q252H mutant (27 to end residues) assessed as residual activity at 10 uM using EAIYAAPFAKKK as substrate incubated for 40 mins in presence of [gamma-33ATP] by scintillation counting based radiometry assay relative to control
[2] = target: Serine/threonine-protein kinase 10 (Homo sapiens) (UniProt O94804); experiment: Inhibition of recombinant human LOK (1 to 348 residues) assessed as residual activity at 10 uM using RLGRDKYKTLRQI as substrate after 40 mins in presence of [gamma-33ATP] by scintillation counting based radiometry assay relative to control
Serine/threonine-protein kinase 10 (Homo sapiens), sequence (O94804 whole entry, looked up, the tested form may be a part): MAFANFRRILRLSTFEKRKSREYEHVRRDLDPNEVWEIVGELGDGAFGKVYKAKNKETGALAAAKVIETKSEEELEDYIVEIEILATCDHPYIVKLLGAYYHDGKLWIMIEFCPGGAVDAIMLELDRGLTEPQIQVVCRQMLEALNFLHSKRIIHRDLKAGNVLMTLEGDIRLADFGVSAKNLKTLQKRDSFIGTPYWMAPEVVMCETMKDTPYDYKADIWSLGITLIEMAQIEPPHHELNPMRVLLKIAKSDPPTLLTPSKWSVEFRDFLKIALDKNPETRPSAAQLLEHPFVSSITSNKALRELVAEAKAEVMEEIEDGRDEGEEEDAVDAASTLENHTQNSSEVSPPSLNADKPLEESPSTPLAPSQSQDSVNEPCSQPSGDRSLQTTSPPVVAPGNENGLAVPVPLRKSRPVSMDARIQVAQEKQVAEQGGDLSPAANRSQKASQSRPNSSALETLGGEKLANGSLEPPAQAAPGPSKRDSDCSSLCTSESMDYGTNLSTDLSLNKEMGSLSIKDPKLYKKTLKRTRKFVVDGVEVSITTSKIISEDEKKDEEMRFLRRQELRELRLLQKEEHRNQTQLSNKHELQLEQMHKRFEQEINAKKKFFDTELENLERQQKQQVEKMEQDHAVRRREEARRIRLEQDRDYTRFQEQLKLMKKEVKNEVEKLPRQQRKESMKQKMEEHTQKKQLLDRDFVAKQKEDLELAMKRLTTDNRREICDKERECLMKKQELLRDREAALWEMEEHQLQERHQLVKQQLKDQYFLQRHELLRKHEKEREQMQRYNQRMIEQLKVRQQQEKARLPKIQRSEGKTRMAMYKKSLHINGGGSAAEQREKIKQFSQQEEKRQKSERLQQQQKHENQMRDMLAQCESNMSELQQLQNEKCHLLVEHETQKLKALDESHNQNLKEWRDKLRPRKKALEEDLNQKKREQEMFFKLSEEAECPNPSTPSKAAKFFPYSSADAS

[3] = target: Serine/threonine-protein kinase WNK1 (Homo sapiens) (UniProt Q9H4A3); experiment: Inhibition of recombinant human WNK1 (1 to 491 residues) assessed as residual activity at 10 uM using myelin basic protein as substrate incubated for 40 mins in presence of [gamma33P]ATP by scintillation counting based radiometry assay relative to control
[4] = target: Tyrosine-protein kinase receptor TYRO3 (Homo sapiens) (UniProt Q06418); experiment: Inhibition of recombinant human RSE (451 to end residues) assessed as residual activity at 10 uM using KVEKIGEGTYGVVYK as substrate incubated for 40 mins in presence of [gamma33P]ATP by scintillation counting based radiometry assay relative to control
[5] = target: Serine/threonine-protein kinase MRCK beta (Homo sapiens) (UniProt Q9Y5S2); experiment: Inhibition of recombinant human MRCKbeta (1 to 473 residues) assessed as residual activity at 10 uM using KKRNRTLTV as substrate incubated for 40 mins in presence of [gamma-33ATP by scintillation counting based radiometry assay relative to control
Serine/threonine-protein kinase MRCK beta (Homo sapiens), sequence (Q9Y5S2 whole entry, the tested form may be a part): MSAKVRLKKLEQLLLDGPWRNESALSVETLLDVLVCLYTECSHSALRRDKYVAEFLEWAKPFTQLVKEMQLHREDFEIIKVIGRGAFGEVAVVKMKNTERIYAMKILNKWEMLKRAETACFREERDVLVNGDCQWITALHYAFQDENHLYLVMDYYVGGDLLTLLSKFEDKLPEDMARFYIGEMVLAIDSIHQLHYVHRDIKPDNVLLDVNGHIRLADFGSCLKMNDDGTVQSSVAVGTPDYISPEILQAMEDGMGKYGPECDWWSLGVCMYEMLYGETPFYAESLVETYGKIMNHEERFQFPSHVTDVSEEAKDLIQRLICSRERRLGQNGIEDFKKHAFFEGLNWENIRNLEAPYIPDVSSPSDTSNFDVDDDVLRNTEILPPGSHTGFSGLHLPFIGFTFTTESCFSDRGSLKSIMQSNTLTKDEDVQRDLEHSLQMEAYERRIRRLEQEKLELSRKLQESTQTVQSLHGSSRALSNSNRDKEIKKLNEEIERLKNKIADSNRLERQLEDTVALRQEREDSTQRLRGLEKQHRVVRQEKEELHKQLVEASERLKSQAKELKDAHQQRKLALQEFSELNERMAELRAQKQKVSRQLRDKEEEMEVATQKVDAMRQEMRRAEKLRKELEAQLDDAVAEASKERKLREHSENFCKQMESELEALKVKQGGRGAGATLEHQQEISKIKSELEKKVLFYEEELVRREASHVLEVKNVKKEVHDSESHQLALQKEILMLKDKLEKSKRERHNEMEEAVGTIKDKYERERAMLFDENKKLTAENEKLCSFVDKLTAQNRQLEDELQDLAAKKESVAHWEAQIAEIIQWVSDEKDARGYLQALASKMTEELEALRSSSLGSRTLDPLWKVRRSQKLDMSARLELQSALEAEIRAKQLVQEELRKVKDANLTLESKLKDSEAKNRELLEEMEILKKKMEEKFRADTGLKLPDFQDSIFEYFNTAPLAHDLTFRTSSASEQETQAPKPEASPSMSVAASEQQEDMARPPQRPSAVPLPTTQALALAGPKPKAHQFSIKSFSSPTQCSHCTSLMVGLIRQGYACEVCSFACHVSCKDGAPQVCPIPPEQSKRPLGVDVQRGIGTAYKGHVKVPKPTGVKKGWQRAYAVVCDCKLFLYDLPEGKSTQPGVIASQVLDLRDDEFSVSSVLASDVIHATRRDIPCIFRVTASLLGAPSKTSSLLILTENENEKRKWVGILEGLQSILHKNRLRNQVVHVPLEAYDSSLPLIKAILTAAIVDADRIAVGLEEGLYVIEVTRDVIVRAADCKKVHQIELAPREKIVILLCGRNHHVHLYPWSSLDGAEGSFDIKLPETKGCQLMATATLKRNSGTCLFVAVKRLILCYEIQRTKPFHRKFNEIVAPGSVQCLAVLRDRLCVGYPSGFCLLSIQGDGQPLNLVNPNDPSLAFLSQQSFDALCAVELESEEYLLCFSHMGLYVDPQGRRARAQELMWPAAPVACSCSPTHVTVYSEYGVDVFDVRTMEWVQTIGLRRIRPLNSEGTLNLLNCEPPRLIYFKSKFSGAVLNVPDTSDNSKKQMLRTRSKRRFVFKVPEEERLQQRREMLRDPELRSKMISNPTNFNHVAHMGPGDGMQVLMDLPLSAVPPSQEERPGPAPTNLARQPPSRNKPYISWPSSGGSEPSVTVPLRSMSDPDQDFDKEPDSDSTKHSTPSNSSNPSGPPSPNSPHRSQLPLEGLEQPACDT

[6] = target: Serine/threonine-protein kinase DCLK2 (Homo sapiens) (UniProt Q8N568); experiment: Inhibition of recombinant human DCAMKL2 (376 to end residues) assessed as residual activity at 10 uM using KKLNRTLSFAEPG as substrate at 40 mins in presence of [gamma-33ATP] by scintillation counting based radiometry assay relative to control
[7] = tested on: TGF-beta receptor type-1 (Homo sapiens), P36897 [T204D]; experiment: Inhibition of recombinant human TGFBR1 T204D mutant (200 to end residues) assessed as residual activity at 10 uM using casein as substrate incubated for 40 mins in presence of [gamma33P]ATP by scintillation counting based radiometry assay relative to control
[8] = tested on: Angiopoietin-1 receptor (Homo sapiens), Q02763 [Q939H,Q940H,Y897S]; experiment: Inhibition of recombinant human TIE2 Q939H/Q940H/Y897S mutant (771 to end residues) assessed as residual activity at 10 uM using EFPIYDFLPAKKK as substrate incubated for 40 mins in presence of [gamma33P]ATP by scintillation counting based radiometry assay relative to control
[9] = target: Serine/threonine-protein kinase MAK (Homo sapiens) (UniProt P20794); experiment: Inhibition of recombinant human MAK assessed as residual activity at 10 uM using RRRFRPASPLRGPPK as substrate after 120 mins in presence of [gamma-33ATP] by scintillation counting based radiometry assay relative to control
[10] = target: Ephrin type-A receptor 2 (Homo sapiens) (UniProt P29317); experiment: Inhibition of recombinant human EphA2 (596 to 900 residues) assessed as residual activity at 10 uM using poly(Glu, Tyr) 4:1 as substrate at 40 mins in presence of [gamma-33ATP] by scintillation counting based radiometry assay relative to control
[11] = tested on: CDK18/Cyclin Y (Homo sapiens), Q07002+Q8ND76 [T166M]; experiment: Inhibition of recombinant full length human CDK18/cyclinY T166M mutant assessed as residual activity at 10 uM using YRRAAVPPSPSLS as substrate incubated for 40 mins in presence of [gamma-33ATP] by scintillation counting based radiometry assay relative to control; type: protein-complex assay
[12] = target: Mitogen-activated protein kinase 13 (Homo sapiens) (UniProt O15264); experiment: Inhibition of recombinant human full length SAPK4 assessed as residual activity at 10 uM using myelin basic protein as substrate incubated for 40 mins in presence of [gamma33P]ATP by scintillation counting based radiometry assay relative to control
Mitogen-activated protein kinase 13 (Homo sapiens), sequence (O15264 whole entry): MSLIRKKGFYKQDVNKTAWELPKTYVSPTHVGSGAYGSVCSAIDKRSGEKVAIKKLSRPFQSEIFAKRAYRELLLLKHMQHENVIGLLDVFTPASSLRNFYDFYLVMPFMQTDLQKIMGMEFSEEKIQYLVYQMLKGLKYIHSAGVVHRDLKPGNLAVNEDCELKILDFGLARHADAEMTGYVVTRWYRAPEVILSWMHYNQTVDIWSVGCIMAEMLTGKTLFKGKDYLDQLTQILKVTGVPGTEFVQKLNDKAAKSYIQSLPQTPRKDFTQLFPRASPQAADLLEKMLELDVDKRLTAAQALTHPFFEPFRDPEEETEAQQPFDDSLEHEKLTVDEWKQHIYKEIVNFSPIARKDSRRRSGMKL

[13] = target: Tyrosine-protein kinase SYK (Homo sapiens) (UniProt P43405); experiment: Inhibition of recombinant human full length SYK assessed as residual activity at 10 uM using poly(Glu, Tyr) 4:1 as substrate incubated for 40 mins in presence of [gamma33P]ATP by scintillation counting based radiometry assay relative to control
[14] = target: Serine/threonine-protein kinase Nek6 (Homo sapiens) (UniProt Q9HC98); experiment: Inhibition of recombinant human NEK6 (2 to end residues) assessed as residual activity at 10 uM using FLAKSFGSPNRAYKK as substrate measured after 40 mins in presence of [gamma33P]ATP by scintillation counting based radiometry assay relative to control
[15] = target: Testis-specific serine/threonine-protein kinase 2 (Homo sapiens) (UniProt Q96PF2); experiment: Inhibition of recombinant full-length human TSSK2 assessed as residual activity at 10 uM using KKKVSRSGLYRSPSMPENLNRPR as substrate incubated for 40 mins in presence of [gamma33P]ATP by scintillation counting based radiometry assay relative to control
[16] = tested on: PI3-kinase p110-alpha/p85-alpha (Homo sapiens), P27986+P42336 [E545K]; experiment: Inhibition of recombinant full-length human PI3K p110/p85 E545K mutant assessed as residual activity at 10 uM using phosphatidylinositol-4, 5-bisphosphate as substrate incubated for 40 mins in presence of [gamma33P]ATP by scintillation counting based radiometry assay relative to control
[17] = tested on: Serine/threonine-protein kinase Nek4 (Homo sapiens), P51957 [P225A]; experiment: Inhibition of recombinant full-length human NEK4 P225A mutant assessed as residual activity at 10 uM using myelin basic protein as substrate measured after 40 mins in presence of [gamma33P]ATP by scintillation counting based radiometry assay relative to control
Serine/threonine-protein kinase Nek4 (Homo sapiens), P51957 [P225A], sequence (P51957 whole entry P225A): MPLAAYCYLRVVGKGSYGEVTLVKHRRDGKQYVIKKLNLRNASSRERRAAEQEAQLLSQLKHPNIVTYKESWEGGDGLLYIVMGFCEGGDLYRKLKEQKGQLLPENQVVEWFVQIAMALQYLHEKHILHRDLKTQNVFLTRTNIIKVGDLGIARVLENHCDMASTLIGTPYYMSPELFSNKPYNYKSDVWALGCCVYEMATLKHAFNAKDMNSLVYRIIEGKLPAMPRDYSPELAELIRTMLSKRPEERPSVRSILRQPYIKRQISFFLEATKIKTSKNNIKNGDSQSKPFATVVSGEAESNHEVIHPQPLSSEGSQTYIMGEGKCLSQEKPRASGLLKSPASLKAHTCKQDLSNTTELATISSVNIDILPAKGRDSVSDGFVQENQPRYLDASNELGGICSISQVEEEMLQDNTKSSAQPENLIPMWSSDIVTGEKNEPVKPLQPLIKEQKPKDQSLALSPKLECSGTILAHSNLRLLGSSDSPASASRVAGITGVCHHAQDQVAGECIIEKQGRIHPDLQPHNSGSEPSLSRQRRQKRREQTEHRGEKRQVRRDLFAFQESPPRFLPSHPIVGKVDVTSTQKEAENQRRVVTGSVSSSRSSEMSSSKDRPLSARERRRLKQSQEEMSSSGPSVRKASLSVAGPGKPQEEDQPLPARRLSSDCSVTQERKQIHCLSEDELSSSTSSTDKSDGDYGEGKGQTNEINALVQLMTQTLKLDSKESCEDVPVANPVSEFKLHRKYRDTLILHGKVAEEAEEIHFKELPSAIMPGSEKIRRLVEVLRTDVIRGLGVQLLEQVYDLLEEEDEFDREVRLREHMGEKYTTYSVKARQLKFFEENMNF

[18] = target: G protein-coupled receptor kinase 3 (Homo sapiens) (UniProt P35626); experiment: Inhibition of recombinant full length human GRK3 assessed as residual activity at 10 uM using casein as substrate at 40 mins in presence of [gamma-33ATP] by scintillation counting based radiometry assay relative to control
[19] = target: Serine/threonine-protein kinase 38-like (Homo sapiens) (UniProt Q9Y2H1); experiment: Inhibition of recombinant human NDR2 (83 to end residues) assessed as residual activity at 10 uM using RSRSRSRSRSRSRSR as substrate measured after 40 mins in presence of [gamma33P]ATP by scintillation counting based radiometry assay relative to control
Serine/threonine-protein kinase 38-like (Homo sapiens), sequence (Q9Y2H1 2-464 limits assumed): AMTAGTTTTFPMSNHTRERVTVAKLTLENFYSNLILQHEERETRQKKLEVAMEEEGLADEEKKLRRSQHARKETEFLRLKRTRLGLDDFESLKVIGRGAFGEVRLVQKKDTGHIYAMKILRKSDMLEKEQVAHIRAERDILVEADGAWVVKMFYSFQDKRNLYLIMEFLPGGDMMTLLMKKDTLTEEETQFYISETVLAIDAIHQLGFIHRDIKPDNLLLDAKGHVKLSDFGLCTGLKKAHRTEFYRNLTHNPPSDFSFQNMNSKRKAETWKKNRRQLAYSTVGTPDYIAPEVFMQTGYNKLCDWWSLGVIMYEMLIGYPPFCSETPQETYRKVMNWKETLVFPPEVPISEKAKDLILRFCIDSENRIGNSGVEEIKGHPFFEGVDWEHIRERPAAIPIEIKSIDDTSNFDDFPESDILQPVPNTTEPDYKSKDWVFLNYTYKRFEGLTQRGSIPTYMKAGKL

[20] = target: Serine/threonine-protein kinase PAK 3 (Homo sapiens) (UniProt O75914); experiment: Inhibition of recombinant full-length human PAK3 assessed as residual activity at 10 uM using RRRLSFAEPG as substrate measured after 40 mins in presence of [gamma33P]ATP by scintillation counting based radiometry assay relative to control
Serine/threonine-protein kinase PAK 3 (Homo sapiens), sequence (O75914 whole entry, looked up): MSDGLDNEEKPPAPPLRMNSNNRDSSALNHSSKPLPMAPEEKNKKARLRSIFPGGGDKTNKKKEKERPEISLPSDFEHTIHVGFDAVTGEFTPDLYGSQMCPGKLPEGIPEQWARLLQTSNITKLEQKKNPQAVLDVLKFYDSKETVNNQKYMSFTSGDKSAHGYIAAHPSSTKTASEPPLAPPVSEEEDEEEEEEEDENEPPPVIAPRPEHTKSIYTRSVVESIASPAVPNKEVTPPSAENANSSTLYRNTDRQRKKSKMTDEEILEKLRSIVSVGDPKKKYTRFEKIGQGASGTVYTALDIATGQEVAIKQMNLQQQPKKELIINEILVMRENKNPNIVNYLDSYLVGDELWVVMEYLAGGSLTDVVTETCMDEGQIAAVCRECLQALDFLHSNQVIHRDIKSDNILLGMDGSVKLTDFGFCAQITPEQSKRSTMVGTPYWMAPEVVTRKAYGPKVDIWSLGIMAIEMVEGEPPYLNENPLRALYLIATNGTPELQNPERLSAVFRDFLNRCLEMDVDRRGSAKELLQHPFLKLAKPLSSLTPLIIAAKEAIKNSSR

Structure (SMILES): C[C@@H](c1ccccc1)n1nnc2cnc3ccc(-c4cnc5[nH]ccc5c4)cc3c21
- Activity [1]: 1%
- Activity [2]: 54%
- Activity [3]: 86%
- Activity [4]: 89%
- Activity [5]: 105%
- Activity [6]: 61%
- Activity [7]: 97%
- Activity [8]: 81%
- Activity [9]: 87%
- Activity [10]: 68%
- Activity [11]: 94%
- Activity [12]: 97%
- Activity [13]: 41%
- Activity [14]: 72%
- Activity [15]: 63%
- Activity [16]: 2%
- Activity [17]: 20%
- Activity [18]: 110%
- Activity [19]: 89%
- Activity [20]: 136%
